# Patent US20220387403A1, “COMPOUNDS, COMPOSITIONS AND METHODS FOR TREATING NASH, NAFLD, AND OBESITY” (CVI Pharmaceuticals Limited, priority 2019, published 2022)
# Like-named read-outs stand apart in the source and are kept apart here.
# Legend:
# [1] = test system: LDLR mRNA; assay: LDLR mRNA expression in HepG2 cells, semi-quantitative RT-PCR; assay type: cell-based, human; details: 8 hours, FIG. 3
# Experimental: HepG2 cells obtained from American Tissue Culture Collection (Manassas, Va., USA) were seeded in 6-well culture plates at a density of 0.8×10^6 cells/well cultured in EMEM containing 0.5% FBS and were treated with each purified compound at indicated doses for 8 hours. Total RNA was isolated, and 2 μg per sample was reverse transcribed with random primers using M-MLV (Promega) at 37° C. for 1 hour. PCR was carried out at 94° C. for 30 sec, 60° C. for 30 sec, and 72° C. for 30 sec with initial activation of the enzyme at 94° C. for 1 minute. Thirty cycles were performed for LDLR and GAPDH. PCR was performed using primers HLDLR-up and HLDLR-lo for LDLR and primers HGAPDH-up and HGAPDH-lo for GAPDH. The PCR products were separated on a 1% agarose gel and the band intensity was quantitated. LDLR mRNA levels were corrected by measuring GAPDH mRNA levels.
# Specific stereochemical requirements of +/−THP in the upregulation of LDLR mRNA expression were determined by a similar experiment. HepG2 cells were treated with the pure 14R-(+)-THP or the pure 14S-(−)-THP at the indicated concentrations for 24 hours. The levels of LDLR mRNA and GAPDH mRNA in untreated and the compound-treated HepG2 cells were assessed by semi-quantitative RT-PCR.
# [2] = test system: LDLR; assay: Western blot of LDLR protein in HepG2 cells; assay type: cell-based, human; details: for LDLR protein levels (in words): 20 μM, 1, 2 and 3 days
# Experimental: (§1) Cells were harvested after 1, 2, and 3 days treatment and western blot analysis was conducted using antibodies directed to LDLR and PCSK9. Chicken anti-LDLR was purchased from Abcam, the mouse anti-PCSK9 was purchased from Cayman Chemicals, and anti-pACC was purchased from Cell Signaling.
# (§2) To determine whether the stimulatory effects of statins on LDLR protein expression could be enhanced by some new compounds invented herein, HepG2 cells were untreated or treated with a low dose of rosuvastatin (RSV) at 0.3 and 1 uM concentration in the absence or the presence of Compound 127(+), or treated with low concentrations of Compound 127(+) alone for 2 days. Western blot analysis was conducted to examine LDLR and PCSK9 protein levels. Compound 127(+) is the single enantiomer of compound 127 with a positive optical rotation. […] Furthermore, the inducing effects of RSV on PCSK9 protein levels were antagonized by compound 127(+).
# (§3) Chicken anti-LDLR was purchased from Abcam and the mouse anti-PCSK9 was purchased from Cayman Chemicals. HepG2 cells cultured in 60-mm dishes were incubated overnight in medium containing 0.5% fetal bovine serum prior to the addition of compounds at 20 uM concentration for 1-3 days. Total cell lysate was isolated and 50 μg of protein was separated on SDS-PAGE and transferred to nitrocellulose membrane for immunoblotting with anti-LDLR, anti-PCSK9, and anti-p-ACC.
# [3] = test system: PCSK9; assay: Western blot of PCSK9 protein in HepG2 cells; assay type: cell-based, human; details: for expression of PCSK9 protein (in words): 20 μM, 1, 2 and 3 days
# Experimental: as §1, §2, §3
# [4] = test system: ACC; assay: Western blot of phosphorylated ACC in HepG2 cells; assay type: cell-based, human; details: 20 μM, 1, 2 and 3 days
# Experimental: as §1, §3
# [5] = test system: hyperlipidemic rabbits; assay: Lipid lowering effects and blood chemistry in hyperlipidemic rabbits; details: for serum total cholesterol level: in mM
# Experimental: (§5) Forty-two male Japanese rabbits were fed the cholesterol enriched rabbit diet for two weeks to induce hypercholesterolemia. […] Serum samples were collected at day 0 (before the drug treatment) and day 7. […] All tested animals were sacrificed at the end of a total of 14 days treatment and serum samples were analyzed for TC, LDL-C, TG, and HDL-C. In addition to lipid profiles, a number of biochemical parameters were also analyzed to aseesee the effects of drug treatments on liver function, muscle function, kidney function, and heart function.
# [6] = test system: hyperlipidemic rabbits; details: rabbit, in vivo
# Experimental: as §5
# [7] = test system: LDLR mRNA; assay: LDLR mRNA expression in HepG2 cells, quantitative real-time RT-PCR; assay type: cell-based, human; details: 24 hours, mean ± s.d.
# Experimental: Activities of some compounds of Formulas I, II, III, and IV on LDLR mRNA expression were determined. HepG2 cells were treated with new compounds individually at a dose less than or equal to 10 μM for 24 hours. Total RNA was harvested for quantitative real-time RT-PCR analysis using the method described in Example 16B. […] In these experiments, berberine chloride was included for comparison. […]
# Total RNA was harvested for quantitative real-time RT-PCR analysis using method described in Examples 16B.
# (§4) The effects of 23 compounds on the mRNA expressions of LDLR and PCSK9 were examined using quantitative real-time RT-PCR assays. HepG2 cells were treated with various compounds at 10 and 40 uM concentrations for 24 hours. Total RNA was isolated and 2 μg was used to generate cDNA in a reaction containing random primers and M-MLV at 37° C. for 1 h in a volume of 25 μl. Real-time PCR was performed on the cDNA using MCEP REALPLEX 2 SYSTEM (Eppendorf) and Universal MasterMix (Applied Biosystems). Human LDLR, PCSK9, and GAPDH Pre-Developed TaqMan Assay Reagents (Applied Biosystems) were used to assess the levels of mRNA expressions in HepG2. The levels of LDLR and PCSK9 mRNA were normalized to that of GAPDH. Each RNA samples was assayed in duplicate. The fold activity was calculated by dividing mRNA abundance in compound treated cells with that of control.
# [8] = test system: PCSK9 mRNA; assay: PCSK9 mRNA expression in HepG2 cells, quantitative real-time RT-PCR; assay type: cell-based, human; details: 24 hours, mean ± s.d.
# Experimental: The time-dependent effects of compounds of Formula I, II, III, and IV on the upregulation of LDLR mRNA and the inhibition of PCSK9 mRNA expression were examined (Horton J D, Cohen J C, Hobbs H H. “Molecular biology of PCSK9: its role in LDL metabolism” TRENDS in Biochemical Sciences 2007; 32:71-77). HepG2 cells were treated with new compounds individually at 20 uM dose for 1 day, 2 day, and 3 days. Total RNA was isolated and 2 μg was used to generate cDNA in a reaction containing random primers and M-MLV at 37° C. for 1 hour in a volume of 25 μl. Real-time PCR was performed on the cDNA using MCEP REALPLEX 2 SYSTEM (Eppendorf) and Universal MasterMix (Applied Biosystems). Human LDLR, PCSK9, and GAPDH Pre-Developed TaqMan Assay Reagents (Applied Biosystems) were used to assess the levels of mRNA expressions in HepG2. The levels of LDLR mRNA or PCSK9 mRNA were normalized to that of GAPDH. Each RNA samples was assayed in triplicate. The abundance of LDLR mRNA or PCSK9 mRNA in untreated cells was defined as 1, and the amounts of LDLR mRNA or PCSK9 from compound-treated cells were plotted relative to that value (FIG. 10). The data shown are mean±s.d.
# Total RNA was harvested for quantitative real-time RT-PCR analysis using method described in Examples 16B. The fold activity was derived by dividing the amount of normalized LDLR or PCSK9 mRNA in compound-treated cells over the amount of LDLR or PCSK9 mRNA in untreated control cells.
# as §4
# [9] = test system: NAFLD hamster model; assay: High fat and high cholesterol diet induced NAFLD hamster model; assay type: in vivo; details: C127 80 mg/kg, 4 weeks
# Experimental: In a high fat and high cholesterol diet (HFHCD) induced non-alcoholic fat liver disease (NAFLD) hamster model, hamsters were fed a HFHCD for two weeks then treated for 4 weeks with C128 at 10 mg/kg, 20 mg/kg and 40 mg/kg, along with fenofibrate at 50 mg/kg as a positive control. Serum lipids and liver enzymes were measured using standard techniques. Liver tissue histopathology with Oil-red O staining and H&E staining were also performed.
# In a high fat and high cholesterol diet (HFHCD) induced NAFLD hamster model, hamsters were fed a HFHCD for two weeks then treated for 4 weeks with C127 at 80 mg/kg or with fenofibrate 50 mg/kg.
# [10] = test system: obese Cynomolgus monkeys; assay: Obese Cynomolgus monkeys fed a high fat diet (DEXA scan, serum parameters); assay type: in vivo; details: 40 mg/kg/day PO three weeks, then 80 mg/kg/day weeks 4-6
# Text: Twelve obese Cynomolgus monkeys were fed a high fat diet containing 0.5% cholesterol for 6 weeks before the treatment phase. Before the treatment with compound 127 (C127) or vehicle, all animals received a assessment of whole body and fat composition using Dual Energy X-Ray Absorptiometry (DEXA) whole body scan to measure body fat content and bone mineral density/content (reference: Black, A., Tilmont, E. M., Baer, D. J., Rumpler W. V., et. Al. Accuracy and precision of dual-energy X-ray absorptiometry for body composition measurements in rhesus monkeys. Journal of Medical Primatology, 30:94-99, 2001. Six monkeys received vehicle by PO and six monkeys received C127 at 40 mg/kg/day by PO for three weeks; from week 4-6, C127 dose was increased to 80 mg/kg/day. Dosing was ended after 6-weeks treatment, followed by DEXA scan on all animals.
# [11] = with rosuvastatin 0.3 and 1 uM, 2 days
# [12] = after 14 days of drug treatment, mean, n = 6
# [13] = treatment day 0 (before the drug treatment), mean ± SD, n = 6
# [14] = treatment day 4, 128(+)/128(−) 30 mg/kg, SMV/ATV 3 mg/kg once a day oral gavage
# [15] = treatment day 7, 128(+)/128(−) 30 mg/kg, SMV/ATV 3 mg/kg once a day oral gavage
# [16] = treatment day 10, from day 7 128(+)/128(−) 60 mg/kg, SMV/ATV 10 mg/kg
# [17] = treatment day 14, from day 7 128(+)/128(−) 60 mg/kg, SMV/ATV 10 mg/kg
smiles,measurement,setting,value
"COc1cc2c(cc1OC)[C@H]1[C@@H](C)c3ccc(OC)c(OC)c3CN1CC2 [14R,13S-(+)-CRDL, 14R,13S-(+)-corydaline]",effects on LDLR mRNA expression (in words),[1],potent and dose-dependent effects
"COc1cc2c(cc1O)CCN1Cc3c(ccc(OC)c3OC)CC21 (stereo not drawn) [14R-(+)-CRPM, 14R-(+)-corypalmine]",effects on LDLR mRNA expression (in words),[1],potent and dose-dependent effects
"COc1cc2c(cc1OC)[C@H]1Cc3ccc(OC)c(OC)c3CN1CC2 [14R-(+)-THP, 14R-(+)-tetrahydropalmatine]",effects on LDLR mRNA expression (in words),[1],potent and dose-dependent effects
"COc1cc2c(cc1OC)C1Cc3ccc(OC)c(OS(=O)(=O)c4cccc(F)c4)c3CN1CC2 (stereo not drawn) [127(+), 2,3,10-Trimethoxy-5,6,7,8,13,13a-hexahydroisoquinolino[2,1-b]isoquinolin-9-yl 3-fluorobenzenesulfonate]",LDLR protein levels (in words),[2],effectively increased
same,"stimulatory effects of statins on LDLR protein expression, combination (in words)",[2]; [11],further improved
same,expression of PCSK9 protein (in words),[3],strongly inhibited
same,"inducing effects of RSV on PCSK9 protein levels, combination (in words)",[3]; [11],antagonized
same,ACC phosphorylation (in words),[4],induced
"COc1ccc2c(c1)CCN1Cc3c(ccc(OC)c3OS(=O)(=O)c3cccc(F)c3)CC21 (stereo not drawn) [128(+), 3,10-Dimethxoy-5,6,7,8,13,13a-hexahydroisoquinolino[2,1-b]isoquinolin-9-yl 3-fluorobenzenesulfonate]",LDLR protein levels (in words),[2],effectively increased
same,expression of PCSK9 protein (in words),[3],strongly inhibited
same,ACC phosphorylation (in words),[4],induced
same,ALP,[5]; [12],165.2 IU/L
same,ALT,[5]; [12],68.7 IU/L
same,AST,[5]; [12],20.8 IU/L
same,CK,[5]; [12],1172.3 U/L
same,CREA,[5]; [12],97.2 µmol/L
same,GLU,[5]; [12],7.9 mmol/L
same,HDL-C,[5]; [12],3.6 mmol/L
same,LDH,[5]; [12],47.7 IU/L
same,LDL-C,[5]; [12],29.7 mmol/L
same,TC,[5]; [12],34.2 mmol/L
same,TG,[5]; [12],1.0 mmol/L
same,body weight,[5]; [12],2.6 kg
same,serum total cholesterol level,[5]; [13],28.6 ± 6.7
same,serum total cholesterol level,[5]; [14],31.9 ± 7.5
same,serum total cholesterol level,[5]; [15],33.9 ± 7.2
same,serum total cholesterol level,[5]; [16],33.8 ± 7.8
same,serum total cholesterol level,[5]; [17],34.2 ± 7.4
"COc1ccc2c(c1)CCN1Cc3c(ccc(OC)c3OS(=O)(=O)c3cccc(F)c3)CC21 (stereo not drawn) [128(−), 3,10-Dimethxoy-5,6,7,8,13,13a-hexahydroisoquinolino[2,1-b]isoquinolin-9-yl 3-fluorobenzenesulfonate]",LDLR protein levels (in words),[2],effectively increased
same,expression of PCSK9 protein (in words),[3],strongly inhibited
same,ACC phosphorylation (in words),[4],induced
same,ALP,[6],155.5 IU/L
same,ALT,[6],50.2 IU/L
same,AST,[6],20.8 IU/L
same,CK,[6],997.5 U/L
same,CREA,[6],105.2 µmol/L
same,GLU,[6],7.9 mmol/L
same,LDH,[6],50.3 IU/L
same,adverse effect / toxicities (in words),[6],absence of any adverse effect
same,TC and LDL-C reduction (in words),[5]; 14 days treatment,strong TC and LDL-C reduction
same,HDL-C,[5]; [12],3.5 mmol/L
same,LDL-C,[5]; [12],24.4 mmol/L
same,TC,[5]; [12],29.7 mmol/L
same,TG,[5]; [12],0.9 mmol/L
same,serum total cholesterol level,[5]; [13],28.5 ± 6.3
same,serum total cholesterol level,[5]; [14],29.9 ± 8.0
same,serum total cholesterol level,[5]; [15],29.0 ± 7.9
same,serum total cholesterol level,[5]; [16],27.9 ± 5.2
same,serum total cholesterol level,[5]; [17],29.7 ± 4.9
"COc1cc2c(cc1OC)C1Cc3ccc(OC)c(OS(=O)(=O)c4cccc(F)c4)c3CN1CC2 (stereo not drawn) [Compound 127, 2,3,10-trimethoxy-5,6,7,8,13,13a-hexahydroisoquinolino[2,1-b]isoquinolin-9-yl 3-fluorobenzenesulfonate]",Activity on LDLR mRNA at 10 uM (fold of control),[7]; 10 uM,1.80 ± 0.13 fold of control
same,Activity on LDLR mRNA at 40 uM (fold of control),[7]; 40 uM,2.38 ± 0.38 fold of control
same,Activity on PCSK9 mRNA reduction at 10 uM (fold of control),[8]; 10 uM,0.197 ± 0.014 fold of control
same,Activity on PCSK9 mRNA reduction at 40 uM (fold of control),[8]; 40 uM,0.192 ± 0.016 fold of control
same,"hepatocyte lipid droplet vacuoles, cell and neutrophil infiltration (H&E)",[9],reduced
same,hypolipidemic effect,[9],significant hypolipidemic effect
same,lipid deposition in the liver,[9],effectively reduced
same,"body weight, BMI and body fat (DEXA)",[10],reduced
same,bone mineral content (DEXA),[10],improved
same,liver enzyme ALT,[10],significant reduction
same,"serum LDL-C, TC",[10],trend in reducing
